The values below come from US8865731B2, “Inhibitor of analgesic tolerance” (Kyowa Hakko Kirin Co., Ltd., priority 2008, dated 2014).

For this assay, the system named is Male ddY mice. Nature of the assay: Suppressing activity on morphine analgesic tolerance (hot plate method, response latency). The format is in vivo. The following applies: for ΔChange (Latency at each time point − Pre value) 0.5 h: day 7, 0.5 h; for ΔChange (Latency at each time point − Pre value) 1 h: day 7, 1 h; for ΔChange (Latency at each time point − Pre value) 2 h: day 7, 2 h. A general note: Thermal pain tests record how soon the animal reacts.

Where [1] appears, read: Table 4, Compound (IIA) 100 mg/kg p.o. repeatedly administered alone.
Setting [2] is: Table 4, repeated combination group: Compound (IIA) 100 mg/kg p.o. 30 min before each morphine 6 mg/kg s.c., 7 days.
The mark [3] stands for this setting: Table 1, Compound (IIIB) 3 mg/kg p.o. repeatedly administered alone.
[4] abbreviates: Table 1, repeated combination group: Compound (IIIB) 3 mg/kg p.o. 30 min before each morphine 6 mg/kg s.c., 7 days.
Where [5] appears, read: Table 2, Compound (IIIC) 1 mg/kg p.o. repeatedly administered alone.
Setting [6] is: Table 2, repeated combination group: Compound (IIIC) 1 mg/kg p.o. 30 min before each morphine 6 mg/kg s.c., 7 days.
[7] abbreviates: Table 5, compound 30 mg/kg p.o. repeatedly administered alone.
The mark [8] stands for this setting: Table 5, repeated combination group: compound 30 mg/kg p.o. 30 min before each morphine 6 mg/kg s.c., 7 days.
Setting [9] is: Test Example 6, compound 30 mg/kg p.o. 30 min before each morphine 6 mg/kg s.c., 7 days.
The mark [10] stands for this setting: Test Example 6, compound 30 mg/kg p.o. repeatedly administered alone.
[11] abbreviates: Table 4, Compound (VIA) 30 mg/kg p.o. repeatedly administered alone.
The mark [12] stands for this setting: Table 4, repeated combination group: Compound (VIA) 30 mg/kg p.o. 30 min before each morphine 6 mg/kg s.c., 7 days.
Where [13] appears, read: Table 4, Compound (VII) 60 mg/kg p.o. repeatedly administered alone.
Setting [14] is: Table 4, repeated combination group: Compound (VII) 60 mg/kg p.o. 30 min before each morphine 6 mg/kg s.c., 7 days.

Take `CC(C)(O)CCN1CCN(c2cc3nc(-c4ccco4)nn3c(N)n2)CC1` [Compound (IIA)]: under setting [1], the “ΔChange (Latency at each time point − Pre value) 0.5 h” value is 1.2 ± 1.5 s, the “ΔChange (Latency at each time point − Pre value) 1 h” value amounted to 1.7 ± 1.4 s and the “ΔChange (Latency at each time point − Pre value) 2 h” value is 0.9 ± 1.1 s. Further, under setting [2], the “ΔChange (Latency at each time point − Pre value) 0.5 h” value was 12.8 ± 1.9 s, the “ΔChange (Latency at each time point − Pre value) 1 h” value is 6.4 ± 1.7 s and the “ΔChange (Latency at each time point − Pre value) 2 h” value amounted to 2.4 ± 1.2 s. For the same compound, for the setting “Test Example 5, Compound (IIA) 100 mg/kg p.o. 30 min before each morphine 6 mg/kg s.c., 7 days”, the “development of analgesic tolerance (response latency)” value (“development of analgesic tolerance” below) is given as “the development of analgesic tolerance was prevented”. For the same compound, where the note is “Test Example 5, Compound (IIA) 100 mg/kg p.o. repeatedly administered alone”, the “effect on the response latency” value is reported as “the effect on the response latency was not observed”.

`Cc1ncc(C(=O)Nc2nc(-c3ccco3)c(C(=O)C3CCOCC3)s2)cn1` [Compound (IIIB)]: under setting [3], the “ΔChange (Latency at each time point − Pre value) 0.5 h” value amounted to 0.1 ± 0.5 s, the “ΔChange (Latency at each time point − Pre value) 1 h” value is listed as −0.1 ± 0.4 ^ sec and the “ΔChange (Latency at each time point − Pre value) 2 h” value worked out at 0.4 ± 1.2 s. Under setting [4], the “ΔChange (Latency at each time point − Pre value) 0.5 h” value was determined as 18.2 ± 1.2 s, the “ΔChange (Latency at each time point − Pre value) 1 h” value stood at 13.5 ± 0.8 s and the “ΔChange (Latency at each time point − Pre value) 2 h” value turned out to be 4.8 ± 0.7 s. Further, for the setting “Test Example 3, Compound (IIIB) 3 mg/kg p.o. 30 min before each morphine 6 mg/kg s.c., 7 days”, the “development of analgesic tolerance” value is listed as “the development of analgesic tolerance was prevented”. In addition, the “effect on the response latency” value (Test Example 3, Compound (IIIB) 3 mg/kg p.o. repeatedly administered alone) is reported as “the effect on the response latency was not observed”.

In the case of `Cc1ccc(C(=O)Nc2nc(-c3ccco3)c(C(=O)C3CCOCC3)s2)cn1` [Compound (IIIC)], under setting [5], the “ΔChange (Latency at each time point − Pre value) 0.5 h” value was −2.2 ± 1.3^ sec, the “ΔChange (Latency at each time point − Pre value) 1 h” value was -1.0 ± 0.7 s and the “ΔChange (Latency at each time point − Pre value) 2 h” value is -1.0 ± 0.9 s. Under setting [6], the “ΔChange (Latency at each time point − Pre value) 0.5 h” value amounted to 16.1 ± 2.4 s, the “ΔChange (Latency at each time point − Pre value) 1 h” value came out at 9.3 ± 1.6 s and the “ΔChange (Latency at each time point − Pre value) 2 h” value is 1.9 ± 0.9 s. Further, where the note is “Test Example 3, Compound (IIIC) 1 mg/kg p.o. 30 min before each morphine 6 mg/kg s.c., 7 days”, the “development of analgesic tolerance” value is “the development of analgesic tolerance was prevented”. Besides, the “effect on the response latency” value (Test Example 3, Compound (IIIC) 1 mg/kg p.o. repeatedly administered alone) is recorded as “the effect on the response latency was not observed”.

Turning to `COCCOc1ccc(N2CCN(CCn3ncc4c3nc(N)n3nc(-c5ccco5)nc43)CC2)cc1` [Compound (IVA)], under setting [7], the “ΔChange (Latency at each time point − Pre value) 0.5 h” value turned out to be 0.5 ± 0.6 s, the “ΔChange (Latency at each time point − Pre value) 1 h” value is on record as −0.4 ± 1.0 ^ sec and the “ΔChange (Latency at each time point − Pre value) 2 h” value is -0.5 ± 1.4 s. Under setting [8], the “ΔChange (Latency at each time point − Pre value) 0.5 h” value turned out to be 14.9 ± 1.6 s, the “ΔChange (Latency at each time point − Pre value) 1 h” value amounted to 8.3 ± 0.4 s and the “ΔChange (Latency at each time point − Pre value) 2 h” value was 0.7 ± 1.1 s. The “development of analgesic tolerance” value under setting [9] is given as “the development of analgesic tolerance was prevented”. Moreover, under setting [10], the “effect on the response latency” value is “the effect on the response latency was not observed”.

On to `CCCCc1nc(N)c2nc(-n3nccn3)n(C)c2n1` [Compound (VIA)], for which, under setting [11], the “ΔChange (Latency at each time point − Pre value) 0.5 h” value was -0.8 ± 1.3 s, the “ΔChange (Latency at each time point − Pre value) 1 h” value amounted to 0.2 ± 2.1 s and the “ΔChange (Latency at each time point − Pre value) 2 h” value is -0.2 ± 1.1 s. For the same compound, under setting [12], the “ΔChange (Latency at each time point − Pre value) 0.5 h” value was 13.0 ± 2.4 s, the “ΔChange (Latency at each time point − Pre value) 1 h” value came out at 7.6 ± 1.7 s and the “ΔChange (Latency at each time point − Pre value) 2 h” value turned out to be 1.9 ± 1.3 s. In addition, the “development of analgesic tolerance” value (Test Example 5, Compound (VIA) 30 mg/kg p.o. 30 min before each morphine 6 mg/kg s.c., 7 days) was “the development of analgesic tolerance was prevented”. The “effect on the response latency” value (Test Example 5, Compound (VIA) 30 mg/kg p.o. repeatedly administered alone) is given as “the effect on the response latency was not observed”.

`Cc1nc(-c2sc(NC(=O)C3CC3)nc2-c2ccccc2)no1` [Compound (VII)]: under setting [13], the “ΔChange (Latency at each time point − Pre value) 0.5 h” value was -0.8 ± 1.0 s, the “ΔChange (Latency at each time point − Pre value) 1 h” value was -0.7 ± 1.0 s and the “ΔChange (Latency at each time point − Pre value) 2 h” value was determined as 0.0 ± 0.6 s. Also, under setting [14], the “ΔChange (Latency at each time point − Pre value) 0.5 h” value turned out to be 12.8 ± 2.1 s, the “ΔChange (Latency at each time point − Pre value) 1 h” value worked out at 7.8 ± 1.3 s and the “ΔChange (Latency at each time point − Pre value) 2 h” value was 1.8 ± 0.8 s. Besides, the “development of analgesic tolerance” value (Test Example 5, Compound (VII) 60 mg/kg p.o. 30 min before each morphine 6 mg/kg s.c., 7 days) was “the development of analgesic tolerance was prevented”. The “effect on the response latency” value (Test Example 5, Compound (VII) 60 mg/kg p.o. repeatedly administered alone) is on record as “the effect on the response latency was not observed”.

As to `Cc1cc(Cn2nnc3c(-c4ccco4)nc(N)nc32)ccc1N` [Compound (VIII)], under setting [7], the “ΔChange (Latency at each time point − Pre value) 0.5 h” value is −0.5 ± 0.9 ^ sec, the “ΔChange (Latency at each time point − Pre value) 1 h” value is 0.1 ± 0.9 s and the “ΔChange (Latency at each time point − Pre value) 2 h” value was -1.1 ± 1.1 s. Under setting [8], the “ΔChange (Latency at each time point − Pre value) 0.5 h” value came out at 13.6 ± 1.6 s, the “ΔChange (Latency at each time point − Pre value) 1 h” value stood at 7.8 ± 0.8 s and the “ΔChange (Latency at each time point − Pre value) 2 h” value turned out to be 1.1 ± 0.8 s. The “development of analgesic tolerance” value under setting [9] is on record as “the development of analgesic tolerance was prevented”. For the same compound, the “effect on the response latency” value under setting [10] is on record as “the effect on the response latency was not observed”.
